Data published in the Deep4Chem optical property database.
Several values for one entry are separate records, joined by “and”; a condition that tells them apart may be missing. Identical values can stand only once. One block for each molecule: values may come before it.

Assay: solvent given as SMILES

Structure (SMILES): Oc1ccc(/N=C/c2ccccc2Oc2ccccc2)cc1
absorption maximum (in C1CCCCC1): 348 nm
absorption maximum (in C1COCCO1): 341 nm
absorption maximum (in CC#N): 350 nm
absorption maximum (in CC(C)=O): 342 nm
absorption maximum (in CC(C)CO): 344 nm
absorption maximum (in CC(C)O): 344 nm
absorption maximum (in CCCCC): 341 nm
absorption maximum (in CCCCCC): 346 nm
absorption maximum (in CCCCO): 346 nm
absorption maximum (in CCCCOC(C)=O): 346 nm
absorption maximum (in CCCO): 345 nm
absorption maximum (in CCOC(C)=O): 340 nm
absorption maximum (in CCOCC): 345 nm
absorption maximum (in CN(C)C=O): 345 nm
absorption maximum (in CO): 342 nm
absorption maximum (in CS(C)=O): 348 nm
absorption maximum (in Cc1ccccc1): 342 nm
absorption maximum (in Cc1ccccc1C): 382 nm
absorption maximum (in ClC(Cl)Cl): 343 nm
absorption maximum (in N#Cc1ccccc1): 341 nm
absorption maximum (in c1ccccc1): 345 nm

absorption maximum (in CC#N): 462 nm
absorption maximum (in CO): 461 nm
Structure (SMILES): O=c1c2ccccc2c2c3c(cccc13)c(-c1ccccc1)c1c3cccc4cccc(c43)c12

absorption maximum (in CCO): 335 nm
Structure (SMILES): Nc1cc(F)c(C(=O)c2cc(F)c(F)cc2F)cc1F

absorption maximum (in C1CCOC1): 404 nm
Structure (SMILES): C[Si]1(c2ccccc2)C(c2ccc3c(c2)c2ccccc2n3-c2ccccc2)=C(c2ccccc2)C(c2ccccc2)=C1c1ccc2c(c1)c1ccccc1n2-c1ccccc1

absorption maximum (in C1CCOC1): 342 nm
Structure (SMILES): c1ccc2c(c1)c1ccccc1n2-c1ccc(-c2ccn3nc(-c4ccc(-n5c6ccccc6c6ccccc65)cc4)nc3c2)cc1

absorption maximum (in CCO): 564 nm
absorption maximum (in ClCCl): 565 nm
Structure (SMILES): Cc1ccccc1-c1c2ccc(=[N+]3CCCCC3)cc-2oc2cc(N3CCCCC3)ccc12

absorption maximum (in ClC(Cl)Cl): 428 nm
Structure (SMILES): CCCCCCN1C(=O)c2cccc3c(-c4ccc(-c5ccc(-c6ccc7c8c(cccc68)C(=O)N(CCCCCC)C7=O)s5)s4)ccc(c23)C1=O

Structure (SMILES): CCCCCCC(CCCCCC)n1c(=O)c2c3ccc4cccc5c6cccc7ccc(c2c1=O)c(c76)c3c45
absorption maximum (in C1CCCCC1): 335 nm
absorption maximum (in CC#N): 336 nm
absorption maximum (in CC(C)=O): 336 nm
absorption maximum (in CCCCCC): 334 nm
absorption maximum (in CCO): 336 nm
absorption maximum (in CCOCC): 335 nm
absorption maximum (in CS(C)=O): 339 nm
absorption maximum (in Cc1ccccc1): 339 nm
absorption maximum (in ClC(Cl)(Cl)Cl): 338 nm
absorption maximum (in ClC(Cl)Cl): 339 nm

absorption maximum (in C1CCCCC1): 327 nm
absorption maximum (in CC#N): 327 nm
absorption maximum (in CCO): 329 nm
absorption maximum (in ClCCl): 329 nm
Structure (SMILES): O=P1(c2ccccc2)c2ccccc2-c2sc3ccccc3c21 (stereo not given)

absorption maximum (in ClCCl): 337 nm
Structure (SMILES): COC(=O)C1=C(C(=O)OC)C2(c3cc([N+](=O)[O-])ccc3-c3ccc([N+](=O)[O-])cc32)C2(/C=C/c3ccccc3)c3cc(OC)c(OC)cc3CCN12 (stereo not given)

Structure (SMILES): c1ccc(-c2nc(-c3ccc(-c4nc(-c5ccccc5)c(-c5ccccc5)[nH]4)s3)[nH]c2-c2ccccc2)cc1
absorption maximum (in C1CCOC1): 386 nm
absorption maximum (in CC#N): 385 nm
absorption maximum (in CC(=O)O): 392 nm
absorption maximum (in CC(C)=O): 384 nm and 385 nm
absorption maximum (in CCOC(C)=O): 385 nm
absorption maximum (in CCOCC): 384 nm
absorption maximum (in CO): 382 nm
absorption maximum (in ClC(Cl)Cl): 395 nm and 394.99 nm

Structure (SMILES): Nc1ccc(-c2ccc(N)cc2)cc1
absorption maximum (in C1CCOC1): 306 nm
absorption maximum (in C1COCCO1): 289 nm
absorption maximum (in CC#N): 286 nm
absorption maximum (in CCCCCC): 279 nm
absorption maximum (in CCOC(C)=O): 285 nm
absorption maximum (in CN(C)C=O): 299 nm
absorption maximum (in CO): 281 nm
absorption maximum (in CS(C)=O): 292 nm
absorption maximum (in Cc1ccccc1): 295 nm
absorption maximum (in ClC(Cl)Cl): 305 nm
absorption maximum (in ClCCl): 286 nm
absorption maximum (in O): 281 nm

absorption maximum (in CO): 307 nm
Structure (SMILES): COc1ccccc1-c1nc(-c2ccccc2)c(-c2ccccc2)[nH]1

absorption maximum (in ClC(Cl)Cl): 348 nm
Structure (SMILES): CC(C)(C)c1cccc2c1oc1nc3oc4ccc(-n5c6ccccc6c6ccccc65)cc4c3cc12

absorption maximum (in C1CCOC1): 342 nm
absorption maximum (in CCCCCC): 338 nm
absorption maximum (in CCO): 342 nm
absorption maximum (in CS(C)=O): 345 nm
Structure (SMILES): COc1ccc2cc(-c3ccc(C)cc3)c(=O)oc2c1

absorption maximum (in CCO): 379.08 nm
Structure (SMILES): Cc1cc2cc3ccccc3cc2cn1

absorption maximum (in ClCCl): 470 nm
Structure (SMILES): O=C(c1ccc2c3c(cccc13)-c1cccc3c1C2CC=C3)c1c(CCc2ccccc2)c2ccc3cccc4c5cccc6ccc1c(c65)c2c34 (stereo not given)

Structure (SMILES): N#Cc1nc(-c2ccc(N3c4ccccc4Oc4ccccc43)cc2)c(-c2ccc(N3c4ccccc4Oc4ccccc43)cc2)nc1C#N
absorption maximum (in Cc1ccccc1): 473 nm

absorption maximum (in ClC(Cl)Cl): 393 nm
Structure (SMILES): c1ccc2c(c1)ccc1ccc3ccc4ccccc4c3c12

absorption maximum (in ClCCl): 411 nm
Structure (SMILES): C(#Cc1ncnc2ccccc12)c1ccc(N(c2ccccc2)c2ccccc2)cc1

Structure (SMILES): CCCCCCCCOc1ccc2c3cccc4c(OCCCCCCCC)ccc(c5cccc1c52)c43
absorption maximum (in C1CCOC1): 460 nm
absorption maximum (in Cc1ccccc1): 462 nm
absorption maximum (in ClC(Cl)(Cl)Cl): 462 nm
absorption maximum (in ClC(Cl)Cl): 462 nm
absorption maximum (in ClCCl): 461 nm
absorption maximum (in c1ccncc1): 464 nm

absorption maximum (in ClCCl): 522 nm
Structure (SMILES): CCc1ccccc1-c1c2ccccc2c(C#Cc2ccccc2)c2cc3ccccc3cc12

absorption maximum (in ClC(Cl)Cl): 386 nm
Structure (SMILES): Cc1cc(=O)oc2cc3c(cc12)c1c2ccccc2c2ccccc2c1c1c2ccccc2c2ccccc2c31

absorption maximum (in ClCCl): 361 nm
Structure (SMILES): O=C1c2ccccc2C2=Nc3cccc[n+]3[B-](F)(F)N12

absorption maximum (in CCO): 560 nm
absorption maximum (in ClCCl): 559 nm
Structure (SMILES): Cc1ccccc1-c1c2ccc(=[N+]3CCOCC3)cc-2oc2cc(N3CCCCC3)ccc12

Structure (SMILES): O=C1/C(=C\c2ccc3oc4ccccc4c3c2)S(=O)(=O)c2ccccc21
absorption maximum (in C1CCOC1): 368 nm
absorption maximum (in C1COCCO1): 369 nm
absorption maximum (in CC#N): 365 nm
absorption maximum (in CC(C)=O): 365 nm
absorption maximum (in CCOC(C)=O): 366 nm
absorption maximum (in CN(C)C=O): 367 nm
absorption maximum (in CO): 367 nm
absorption maximum (in CS(C)=O): 369 nm
absorption maximum (in Cc1ccccc1): 373 nm
absorption maximum (in ClC(Cl)Cl): 378 nm
absorption maximum (in ClCCl): 372 nm

absorption maximum (in CO): 446 nm
absorption maximum (in ClC(Cl)Cl): 488 nm
Structure (SMILES): Cc1nc2c(ccc3c2sc(/C=C/c2ccc(-n4c5ccccc5c5ccccc54)cc2)[n+]3C)s1

absorption maximum (in C1CCCCC1): 314 nm
absorption maximum (in CC#N): 310 nm
absorption maximum (in CCO): 312 nm
Structure (SMILES): Cc1ccc(/C=C/c2ccccc2-[n+]2noc([O-])c2C)cc1

absorption maximum (in ClCCl): 376 nm
Structure (SMILES): C[Si]1(C)O[Si](C)(C)c2cc3nc4ccc([N+](=O)[O-])cc4c(-c4ccccc4)c3cc2[Si](C)(C)O1

Structure (SMILES): CN(C)c1ccc(-c2nc3cnccc3[nH]2)cc1
absorption maximum (in C1CCCCC1): 327 nm
absorption maximum (in C1CCOC1): 332 nm
absorption maximum (in C1COCCO1): 331 nm
absorption maximum (in CC#N): 335 nm
absorption maximum (in CCCCO): 339 nm
absorption maximum (in CCCO): 339 nm
absorption maximum (in CCO): 340 nm
absorption maximum (in CCOC(C)=O): 332 nm
absorption maximum (in CCOCC): 328 nm
absorption maximum (in CO): 341 nm
absorption maximum (in O): 335 nm

absorption maximum (in ClCCl): 636 nm
Structure (SMILES): CCCC1=Cc2nc1ccc1[nH]c(cc1CCC)c1nc(c(NC(=O)CCCC(=O)O)cc3[nH]c2cc3CCC)C(CCC)=C1

Structure (SMILES): CC(C)(C)c1c2ccc3[nH]c4c(ccc5c(C(C)(C)C)c(ccc6[nH]c7c(ccc1c7n2)c6C(C)(C)C)nc54)c3C(C)(C)C
absorption maximum (in Cc1ccccc1): 764 nm

absorption maximum (in CN(C)C=O): 351 nm
Structure (SMILES): Cc1ccc2[nH]c(-c3ccc(-c4ccc(-c5ccc(-c6nc7cc(C)ccc7[nH]6)cc5)cc4)cc3)nc2c1

absorption maximum (in CCO): 590 nm
absorption maximum (in O): 590 nm
Structure (SMILES): CC/[NH+]=c1\cc2oc3cc(NCCN)c4ccccc4c3nc-2cc1C

absorption maximum (in C1COCCO1): 463 nm
absorption maximum (in CC(C)O): 485 nm
absorption maximum (in CCCCO): 490 nm
absorption maximum (in CCCO): 487 nm
absorption maximum (in CCO): 484 nm
absorption maximum (in CO): 479 nm
absorption maximum (in CS(C)=O): 476 nm
absorption maximum (in ClC(Cl)Cl): 496 nm
absorption maximum (in ClCCl): 513 nm
absorption maximum (in c1ccccc1): 477 nm
Structure (SMILES): CCC[n+]1ccc(/C=C/c2ccc(N(C)C)cc2)cc1

absorption maximum (in ClC(Cl)Cl): 303 nm
Structure (SMILES): O=CC1=Cc2cocc2C=C(C=O)C1

Structure (SMILES): COC1(OC)C2(Cl)c3nc4cc(-c5cccs5)ccc4nc3C1(Cl)C1C[C@H]3[C@@H](CC12)C1(Cl)c2nc4cc(-c5cccs5)ccc4nc2C3(Cl)C1(OC)OC (stereo not given in full)
absorption maximum (in CC#N): 366 nm
absorption maximum (in CCCCCC): 358 nm
absorption maximum (in CCOC(C)=O): 362 nm
absorption maximum (in CO): 369 nm
absorption maximum (in Cc1ccccc1): 364 nm
absorption maximum (in ClC(Cl)Cl): 368 nm
absorption maximum (in ClCCl): 369 nm

Structure (SMILES): CCCCCCCCC1(CCCCCCCC)c2cc(-c3ccc([N+](=O)[O-])cc3)ccc2-c2ccc(-c3ccc([N+](=O)[O-])cc3)cc21
absorption maximum (in C1CCCCC1): 357 nm
absorption maximum (in CCO): 368 nm
absorption maximum (in CN(C)C=O): 380 nm
absorption maximum (in CS(C)=O): 382 nm
absorption maximum (in Cc1ccccc1): 365 nm
absorption maximum (in ClC(Cl)Cl): 373 nm

absorption maximum (in C1CCOC1): 314 nm
absorption maximum (in CC(C)O): 309 nm
absorption maximum (in CCCCCC): 314 nm
absorption maximum (in CO): 309 nm
absorption maximum (in CS(C)=O): 313 nm
absorption maximum (in ClCCl): 311 nm
Structure (SMILES): Cc1ccc(-n2c(-c3ccc(C(F)(F)F)cc3)nc(-c3ccccc3O)c2-c2ccccc2O)cc1

absorption maximum (in CS(C)=O): 468 nm
absorption maximum (in ClCCl): 459 nm
Structure (SMILES): CCN(CC)c1ccc2c(c1)oc(=O)c1c(=O)oc3cc(C#Cc4ccc(N(C)C)cc4)ccc3c12

absorption maximum (in ClC(Cl)Cl): 338 nm
Structure (SMILES): CCCCn1c2ccc(-c3ccc(OC)cc3)cc2c2ccc3c4cc(-c5ccc(OC)cc5)ccc4n(CCCC)c3c21

Structure (SMILES): Cc1ccc2c(c1)C1(c3ccccc3-c3ccccc31)c1cc(C)ccc1N2c1ccc2c(c1)Oc1ccccc1P2(=S)c1ccccc1 (stereo not given)
absorption maximum (in Cc1ccccc1): 311.25 nm

absorption maximum (in ClCCl): 374 nm
Structure (SMILES): CCOC(=O)/N=c1/oc2c(OC)cccc2cc1C#N

absorption maximum (in C1CCCCC1): 332 nm
Structure (SMILES): CCC(C)(C)c1ccc2c(c1)C(CCOC)(CCOC)c1cc(-c3ccc(-c4ccc5c(c4)C(CCOC)(CCOC)c4cc(C(C)(C)CC)ccc4-5)cc3)ccc1-2

absorption maximum (in C1CCCCC1): 422 nm
absorption maximum (in CC#N): 441 nm
absorption maximum (in CCO): 442 nm
Structure (SMILES): COc1cc(OC)c2c(c1)C(=O)c1ccc(OC)cc1-2

absorption maximum (in C1CCCCC1): 328 nm
Structure (SMILES): CCCC1(CCC)c2cc(-c3ccc(C(C)(C)CC)cc3)ccc2-c2ccc(-c3ccc(C(C)(C)CC)cc3)cc21

absorption maximum (in O): 646 nm
Structure (SMILES): Cc1ccc(C)c(C2=C3C=CC(=[N+](C)C)C=C3[Si](C)(C)c3cc(N(C)C)ccc32)c1
